The target of the first assay is T1, chimeric human H3 receptor (Homo sapiens, UniProt Q9Y5N1, E19D).
T1 construct: made in house; host or cells: Sf9 insect cells (baculovirus infection); P2 membrane preparation
T1 sequence (Q9Y5N1 with tags, fused parts or gaps E19D): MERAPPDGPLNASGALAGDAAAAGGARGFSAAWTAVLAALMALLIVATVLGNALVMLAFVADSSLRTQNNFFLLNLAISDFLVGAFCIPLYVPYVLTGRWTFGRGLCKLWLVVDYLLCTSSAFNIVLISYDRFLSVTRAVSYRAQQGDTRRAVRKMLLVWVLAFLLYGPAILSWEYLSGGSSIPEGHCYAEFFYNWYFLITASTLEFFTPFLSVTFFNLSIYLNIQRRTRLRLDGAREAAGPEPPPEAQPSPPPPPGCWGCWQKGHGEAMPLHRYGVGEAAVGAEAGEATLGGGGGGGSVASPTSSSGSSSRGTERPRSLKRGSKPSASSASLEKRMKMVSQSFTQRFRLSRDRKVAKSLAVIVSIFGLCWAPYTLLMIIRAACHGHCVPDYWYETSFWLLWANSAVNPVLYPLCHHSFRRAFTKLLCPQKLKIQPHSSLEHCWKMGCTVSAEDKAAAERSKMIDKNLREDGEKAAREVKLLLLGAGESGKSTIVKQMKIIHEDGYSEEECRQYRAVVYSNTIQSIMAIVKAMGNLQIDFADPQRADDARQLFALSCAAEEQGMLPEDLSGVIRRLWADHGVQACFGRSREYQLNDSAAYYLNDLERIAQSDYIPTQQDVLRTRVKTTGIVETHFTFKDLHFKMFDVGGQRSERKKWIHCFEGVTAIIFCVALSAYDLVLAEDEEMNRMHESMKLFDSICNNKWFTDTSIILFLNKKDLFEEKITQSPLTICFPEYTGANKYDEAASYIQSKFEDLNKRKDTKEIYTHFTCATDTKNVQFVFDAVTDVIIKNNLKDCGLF
Description: Chimeric human H3 receptor GTP binding assay (agonist-stimulated GTP-gamma35S binding, Example 7). The class given is biochemical. The note with it: assay of Example 7; "*" in Ki of Table II; read-out: Ki. In short, it runs like this: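 Sf9 membranes co-expressing the chimeric receptor and heterotrimeric G-protein subunits, 35 μg protein per tube, in pH 7.4 Tris buffer with 10 μM GDP. Test compounds at 10^−10 to 10^−6 M with 1 μM histamine, 60 min at room temperature. Filter-bound GTP-gamma^35S read by scintillation; IC50 from non-linear regression of dose-response curves.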
In general terms: GTPγS is a poorly hydrolysed GTP analogue; its binding reports G protein activation.
What is called Ki is the equilibrium dissociation constant of an inhibitor or competing ligand from its target. Turning to `CSc1ccc(C(=O)NC2CCN(CC(=O)N3CCN(C4CCC4)CC3)C2)cc1` (stereo not shown) [Compound 1241, N-{1-[2-(4-cyclobutylpiperazin-1-yl)-2-oxoethyl]pyrrolidin-3-yl}-4-(methylthio)benzamide], the Ki is under 1000 nM.
The same measure, in the same setting: the value for `CCSc1ccc(C(=O)NC2CCN(CC(=O)N3CCN(C4CCC4)CC3)C2)cc1` (stereo not shown) [Compound 1242, N-{1-[2-(4-cyclobutylpiperazin-1-yl)-2-oxoethyl]pyrrolidin-3-yl}-4-(ethylthio)benzamide] was under 1000 nM; that for `COc1ccc(C(=O)NC2CCN(CC(=O)N3CCN(C4CCC4)CC3)C2)cc1F` (stereo not shown) [Compound 1243, N-{1-[2-(4-cyclobutylpiperazin-1-yl)-2-oxoethyl]pyrrolidin-3-yl}-3-fluoro-4-methoxybenzamide] was under 1000 nM.
Take `O=C(NC1CCN(CC(=O)N2CCN(C3CCC3)CC2)C1)c1ccc(Oc2ccccc2)cc1` (stereo not shown) [Compound 1244, N-{1-[2-(4-cyclobutylpiperazin-1-yl)-2-oxoethyl]pyrrolidin-3-yl}-4-phenoxybenzamide]: the Ki was under 1000 nM.
The same measure, in the same setting: the value for `CC(C)CC(=O)NC1CCN(CC(=O)N2CCN(C3CCC3)CC2)C1` (stereo not shown) [Compound 1246, N-{1-[2-(4-cyclobutylpiperazin-1-yl)-2-oxoethyl]pyrrolidin-3-yl}-3-methylbutanamide] was under 1000 nM.
The same measure, in the same setting: the value for `CC(C)CCC(=O)NC1CCN(CC(=O)N2CCN(C3CCC3)CC2)C1` (stereo not shown) [Compound 1247, N-{1-[2-(4-cyclobutylpiperazin-1-yl)-2-oxoethyl]pyrrolidin-3-yl}-4-methylpentanamide] was under 1000 nM.
Still for that read-out and setting: the figure for `O=C(CC1CCCC1)NC1CCN(CC(=O)N2CCN(C3CCC3)CC2)C1` (stereo not shown) [Compound 1248, N-{1-[2-(4-cyclobutylpiperazin-1-yl)-2-oxoethyl]pyrrolidin-3-yl}-2-cyclopentylacetamide] is under 1000 nM; for `O=C(CC1CCCCC1)NC1CCN(CC(=O)N2CCN(C3CCC3)CC2)C1` (stereo not shown) [Compound 1249, N-{1-[2-(4-cyclobutylpiperazin-1-yl)-2-oxoethyl]pyrrolidin-3-yl}-2-cyclohexylacetamide] it is under 1000 nM.
With `O=C(CCC1CCCC1)NC1CCN(CC(=O)N2CCN(C3CCC3)CC2)C1` (stereo not shown) [Compound 1250, N-{1-[2-(4-cyclobutylpiperazin-1-yl)-2-oxoethyl]pyrrolidin-3-yl}-3-cyclopentylpropanamide], the Ki was under 1000 nM.
Same read-out and setting: the figure for `CCC(C)CC(=O)NC1CCN(CC(=O)N2CCN(C3CCC3)CC2)C1` (stereo not shown) [Compound 1251, N-{1-[2-(4-cyclobutylpiperazin-1-yl)-2-oxoethyl]pyrrolidin-3-yl}-3-methylpentanamide] is under 1000 nM; for `CC(C)(C)CC(=O)NC1CCN(CC(=O)N2CCN(C3CCC3)CC2)C1` (stereo not shown) [Compound 1252, N-{1-[2-(4-cyclobutylpiperazin-1-yl)-2-oxoethyl]pyrrolidin-3-yl}-3,3-dimethylbutanamide] it is under 1000 nM.
Same read-out and setting: the value for `O=C(NC1CCN(CC(=O)N2CCN(C3CCC3)CC2)C1)c1ccccc1` (stereo not shown) [Compound 1253, N-{1-[2-(4-cyclobutylpiperazin-1-yl)-2-oxoethyl]pyrrolidin-3-yl}benzamide] was under 1000 nM; that for `O=C(NC1CCN(CC(=O)N2CCN(C3CCC3)CC2)C1)c1ccc(-c2ccccc2)cc1` (stereo not shown) [Compound 1254, N-{1-[2-(4-cyclobutylpiperazin-1-yl)-2-oxoethyl]pyrrolidin-3-yl}biphenyl-4-carboxamide] was under 1000 nM.
On the same count and under the same terms, the figure for `O=C(NC1CCN(CC(=O)N2CCN(C3CCC3)CC2)C1)C1CC2CCC1C2` (stereo not shown) [Compound 1255, N-{1-[2-(4-cyclobutylpiperazin-1-yl)-2-oxoethyl]pyrrolidin-3-yl}bicyclo[2.2.1]heptane-2-carboxamide] is under 1000 nM; for `O=C(NC1CCN(CC(=O)N2CCN(C3CCC3)CC2)C1)C1CCCCC1` (stereo not shown) [Compound 1256, N-{1-[2-(4-cyclobutylpiperazin-1-yl)-2-oxoethyl]pyrrolidin-3-yl} cyclohexanecarboxamide] it is under 1000 nM; for `CCCCC(=O)NC1CCN(CC(=O)N2CCN(C3CCC3)CC2)C1` (stereo not shown) [Compound 1257, N-{1-[2-(4-cyclobutylpiperazin-1-yl)-2-oxoethyl]pyrrolidin-3-yl}pentanamide] it is under 1000 nM.
Turning to `CC(=O)NC1CCN(CC(=O)N2CCN(C3CCCC3)CC2)C1` (stereo not shown) [Compound 1258, N-{1-[2-(4-cyclopentylpiperazin-1-yl)-2-oxoethyl]pyrrolidin-3-yl}acetamide], the Ki is under 1000 nM.
The same measure, in the same setting: the value for `CC(=O)NC1CCN(CC(=O)N2CCN(C(C)C)CC2)C1` (stereo not shown) [Compound 1259, N-{1-[2-(4-isopropylpiperazin-1-yl)-2-oxoethyl]pyrrolidin-3-yl}acetamide] was under 1000 nM; that for `C=CCNC(=O)c1cccc(N2CCN(CC(=O)N3CCN(C4CCC4)CC3)CC2)c1` [Compound 1260, N-allyl-3-{4-[2-(4-cyclobutylpiperazin-1-yl)-2-oxoethyl]piperazin-1-yl}benzamide] was under 1000 nM; that for `C=CCNC(=O)c1ccc(N2CCN(CC(=O)N3CCN(C4CCC4)CC3)CC2)cc1` [Compound 1261, N-allyl-4-{4-[2-(4-cyclobutylpiperazin-1-yl)-2-oxoethyl]piperazin-1-yl}benzamide] was under 1000 nM.
On the same count and under the same terms, the figure for `C=CCNC(=O)c1ccc(N2CCN(CC(=O)N3CCN(C4CCC4)CC3)CC2)nc1` [Compound 1262, N-allyl-6-{4-[2-(4-cyclobutylpiperazin-1-yl)-2-oxoethyl]piperazin-1-yl}nicotinamide] is under 1000 nM; for `CCCCNC(=O)c1cccc(N2CCN(CC(=O)N3CCN(C4CCC4)CC3)CC2)c1` [Compound 1263, N-butyl-3-{4-[2-(4-cyclobutylpiperazin-1-yl)-2-oxoethyl]piperazin-1-yl}benzamide] it is under 1000 nM; for `CCCCNC(=O)c1ccc(N2CCN(CC(=O)N3CCN(C4CCC4)CC3)CC2)cc1` [Compound 1264, N-butyl-4-{4-[2-(4-cyclobutylpiperazin-1-yl)-2-oxoethyl]piperazin-1-yl}benzamide] it is under 1000 nM.
The same measure, in the same setting: the value for `CCCCNC(=O)c1ccc(N2CCN(CC(=O)N3CCN(C4CCC4)CC3)CC2)nc1` [Compound 1265, N-butyl-6-{4-[2-(4-cyclobutylpiperazin-1-yl)-2-oxoethyl]piperazin-1-yl}nicotinamide] was under 1000 nM; that for `O=C(NC1CCC1)c1cccc(N2CCN(CC(=O)N3CCN(C4CCC4)CC3)CC2)c1` [Compound 1266, N-cyclobutyl-3-{4-[2-(4-cyclobutylpiperazin-1-yl)-2-oxoethyl]piperazin-1-yl}benzamide] was under 1000 nM; that for `O=C(NC1CCC1)c1ccc(N2CCN(CC(=O)N3CCN(C4CCC4)CC3)CC2)nc1` [Compound 1268, N-cyclobutyl-6-{4-[2-(4-cyclobutylpiperazin-1-yl)-2-oxoethyl]piperazin-1-yl}nicotinamide] was under 1000 nM.
Regarding `CC(=O)c1ccc(N2C[C@@H](C)N(CC(=O)N3CCN(C4CCC4)CC3)[C@@H](C)C2)cc1` [Compound 1270, rel-1-(4-{(3R,5S)-4-[2-(4-cyclobutylpiperazin-1-yl)-2-oxoethyl]-3,5-dimethylpiperazin-1-yl}phenyl)ethanone], the Ki was under 1000 nM.
Still for that read-out and setting: the figure for “N-{1-[2-(4- cyclobutylpiperazin-1-yl)- 2-oxoethyl]piperldin-4-yl}- 2-naphthamide [Compound 1207]” is under 1000 nM.

A further assay concerns the target T1, chimeric human H3 receptor. Description: Chimeric human H3 receptor screening GTP binding assay (inhibition of histamine-stimulated GTP-gamma35S binding, Example 8). The class given is biochemical. The note with it: 1 h; assay described in Example 8; symbol + in column headed Ki of Table II; read-out: percent inhibition of agonist-induced GTP-gammaS binding to H3. As to the method:
This Example illustrates a representative screening assay for evaluating inhibition of histamine-stimulated GTP-gamma^35S binding. Such GTP binding activity can be used to identify H3 antagonists and inverse agonists. A compound analyzed in this assay is referred to herein as a “test compound,” and the initial identification of antagonists and inverse agonists is performed using a test compound concentration of 4 μM.
Four independent baculoviral stocks (one directing the expression of the chimeric human H3 receptor and three directing the expression of each of the three subunits of a heterotrimeric G-protein) are used to infect a culture of Sf9 cells as described above. P2 membranes are prepared as described above, and are resuspended by Dounce homogenization (tight pestle) in GTP binding assay buffer (50 mM Tris pH 7.4, 120 mM NaCl, 5 mM MgCl2, 2 mM EGTA, 1 mg/ml BSA, 0.2 mg/ml bacitracin, 0.02 mg/ml aprotinin, 0.01 mg/ml saponin, 10 μM GDP) and added to assay tubes at a concentration of 35 μg protein/reaction tube. Non-radiolabeled test compounds are added to separate reactions at a concentration of 4 μM along with 1 μM histamine (agonist). Reactions are initiated by the addition of 125 pM GTP-gamma^35S with a final assay volume of 0.20 ml.
After a 60-min incubation at room temperature, reactions are terminated by vacuum filtration over GF/C filters (pre-soaked in 50 mM Tris pH 7.4, 120 mM NaCl plus 0.1% BSA) followed by washing with ice-cold buffer (50 mM Tris pH 7.4, 120 mM NaCl). The amount of receptor-bound (and thereby membrane-bound) GTP-gamma^35S is determined by measuring the bound radioactivity, preferably by liquid scintillation spectrometry of the washed filters. Non-specific binding is determined using 10 uM GTP-gammaS and typically represents less than 5 percent of total binding. After subtraction of non-specific binding, data is expressed as percent inhibition of 1 μM histamine signal.
Neutral antagonists are those test compounds that reduce the histamine-stimulated GTP binding activity towards, but not below, baseline levels. In contrast, in the absence of added histamine, inverse agonists reduce the GTP binding activity of the receptor-containing membranes below baseline. Any test compound that elevates GTP binding activity above baseline in the absence of added histamine in this assay is defined as having agonist activity.
By inhibition is commonly meant the percentage by which the read-out fell short of the control. As for `O=C(CN1CCN(C(=O)c2cccnc2Sc2ccc(Cl)cc2)CC1)N1CCN(C2CCC2)CC1` [Compound 256, 1-({2-[(4-chlorophenyl)thio]pyridin-3-yl}carbonyl)-4-[2-(4-cyclobutylpiperazin-1-yl)-2-oxoethyl]piperazine], the inhibition at 4 µM was over 90%.
Same read-out and setting: the figure for `O=C(Cc1ccc2c(c1)OCO2)N1CCN(CC(=O)N2CCN(C3CCC3)CC2)CC1` [Compound 259, 1-(1,3-benzodioxol-5-ylacetyl)-4-[2-(4-cyclobutylpiperazin-1-yl)-2-oxoethyl]piperazine] is over 90%; for `O=C(CN1CCN(C(=O)c2ccc3c(c2)OCO3)CC1)N1CCN(C2CCC2)CC1` [Compound 260, 1-(1,3-benzodioxol-5-ylcarbonyl)-4-[2-(4-cyclobutylpiperazin-1-yl)-2-oxoethyl]piperazine] it is over 90%.

These data come from patent publication US7851474B2, “Dipiperazinyl ketones and related analogues” (Neurogen Corporation, priority 2005, dated 2010).
